We go through one compound from article PMC12689286, “Enhanced therapeutics of cabazitaxel via polycarboxylate conjugation: improved solubility, safety, and antitumor efficacy” (Frontiers in Immunology, 2025).

For this data set, the system named is thymus. In words: Thymic toxicity in H22 tumor-bearing mice (thymus weight, thymocyte apoptosis). The class given is in vivo, KM mice. The protocol:
H22 hepatoma model: Female KM mice were subcutaneously implanted with H22 cells (2×10^6 cells/mouse) and assigned to six groups: (a) Vehicle control; (b) CTX (9.6 μmol/kg in 5% glucose with 2.5% ethanol/2.5% Tween 80); (c) CTX-TTHA (9.6 μmol/kg in saline); (d) CTX-DTPA (9.6 μmol/kg in saline); (e) CTX-TTHA (19.1 μmol/kg in saline); (f) CTX-DTPA (19.1 μmol/kg in saline).
Gently mix 1×10^6 thymocytes with FITC Anexin V (5 μl) and PI (10 μl), and incubate in the dark for 15 minutes, RT. Analyze by flow cytometry. Thymocytes were stained with anti-mouse CD3e cyanine 5.5 (eBioscience, 85-45-0031-82), anti-CD4 PE (eBioscience, 85-12-0042-82), anti-CD8a FITC (4°C 30 min) and detected by flow cytometry.

Take `CO[C@H]1C(=O)[C@]2(C)[C@@H](OC)C[C@H]3OC[C@@]3(OC(C)=O)[C@H]2[C@H](OC(=O)c2ccccc2)[C@]2(O)C[C@H](OC(=O)[C@H](O)[C@@H](NC(=O)OC(C)(C)C)c3ccccc3)C(C)=C1C2(C)C` [CTX, Cabazitaxel]: the “thymic weight relative to normal (thymic atrophy)” value is recorded as 31 % of normal weight. This compound gave a thymocyte apoptosis rate (Annexin V/PI flow cytometry) of 66.8%.
